Consider three molecules from ChEMBL document CHEMBL1150784, “Multicopy blaOXA-58 gene as a source of high-level resistance to carbapenems in Acinetobacter baumannii” (2007).

Experiment [1] deals with Acinetobacter baumannii. Nature of the experiment: Antimicrobial activity against carbapenem-resistant Acinetobacter baumannii T193 isolate carrying two bla-OXA58 gene copies by agar dilution method. Type of experiment: functional. For orientation: Agar dilution tests growth on a series of plates holding different concentrations.
For experiment [2], the target named is Beta-lactamase OXA-58 (Acinetobacter baumannii) (UniProt Q2TR58). Nature of the experiment: Activity of Acinetobacter baumannii […] OXA58 assessed as hydrolytic specific activity per mg of protein.
Experiment [3] shares this target. Nature of the experiment: Activity of OXA58 from Acinetobacter baumannii 193 isolate carrying two bla-OXA58 gene copy assessed as hydrolytic specific activity per mg of protein.
Experiment [4] deals with Acinetobacter baumannii. Nature of the experiment: Antimicrobial activity against carbapenem-resistant Acinetobacter baumannii T183 isolate carrying one bla-OXA58 gene copy by agar dilution method. The format is functional.
Experiment [5] deals with Acinetobacter baumannii. Nature of the experiment: Antimicrobial activity against carbapenem-resistant Acinetobacter baumannii BM4547 by agar dilution method. Type of experiment: functional.
Experiment [6] deals with Beta-lactamase OXA-58 (Acinetobacter baumannii) (UniProt Q2TR58). Nature of the experiment: Activity of OXA58 from Acinetobacter baumannii 183 isolate carrying one bla-OXA58 gene copy assessed as hydrolytic specific activity per mg of protein.
Experiment [7] deals with Acinetobacter baumannii. The experiment can be described thus: Antimicrobial activity against carbapenem-resistant Acinetobacter baumannii T186 isolate carrying three bla-OXA58 gene copies by agar dilution method. The format is functional.
The subject of experiment [8] is Acinetobacter baumannii. The experiment can be described thus: Antimicrobial activity against carbapenem-resistant Acinetobacter baumannii 183 isolate carrying one bla-OXA58 gene copy by agar dilution method. The format is functional.
Experiment [9] addresses Beta-lactamase OXA-58 (Acinetobacter baumannii) (UniProt Q2TR58). Nature of the experiment: Activity of OXA58 from Acinetobacter baumannii T186 isolate carrying three bla-OXA58 gene copy assessed as hydrolytic specific activity per mg of protein.
The test system of experiment [10] is Acinetobacter baumannii. The experiment can be described thus: Antimicrobial activity against carbapenem-resistant Acinetobacter baumannii 193 isolate carrying two bla-OXA58 gene copies by agar dilution method. The format is functional.
The subject of another experiment is Klebsiella pneumoniae. The experiment can be described thus: Antimicrobial activity against Klebsiella pneumoniae isolate expressing VIM1 gene. The format is functional.
The target of experiment [11] is Beta-lactamase OXA-58 (Acinetobacter baumannii) (UniProt Q2TR58). The experiment can be described thus: Activity of OXA58 from Acinetobacter baumannii 186 isolate carrying three bla-OXA58 gene copy assessed as hydrolytic specific activity per mg of protein.
Experiment [12] shares this target. The experiment can be described thus: Activity of OXA58 from Acinetobacter baumannii T193 isolate carrying two bla-OXA58 gene copy assessed as hydrolytic specific activity per mg of protein.
For experiment [13] the target is unchanged. The experiment can be described thus: Activity of OXA58 from Acinetobacter baumannii T183 isolate carrying one bla-OXA58 gene copy assessed as hydrolytic specific activity per mg of protein.
For experiment [14], the system named is Acinetobacter baumannii. Nature of the experiment: Antimicrobial activity against carbapenem-resistant Acinetobacter baumannii 186 isolate carrying three bla-OXA58 gene copies by agar dilution method. Type of experiment: functional.

Converted amounts (≈) assume the structure as drawn.

Chain of Beta-lactamase OXA-58 (Acinetobacter baumannii) (Q2TR58 whole entry): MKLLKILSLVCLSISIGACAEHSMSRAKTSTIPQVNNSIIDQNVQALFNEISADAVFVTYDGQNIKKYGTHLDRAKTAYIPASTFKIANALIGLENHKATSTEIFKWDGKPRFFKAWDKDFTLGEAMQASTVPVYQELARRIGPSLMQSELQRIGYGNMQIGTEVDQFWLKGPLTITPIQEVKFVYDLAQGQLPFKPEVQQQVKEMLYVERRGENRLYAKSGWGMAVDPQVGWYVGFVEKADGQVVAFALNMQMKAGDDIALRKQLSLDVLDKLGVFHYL

By MIC is commonly meant the least concentration at which growth counts as inhibited. Take `CC(C)(O/N=C(\C(=O)N[C@@H]1C(=O)N2C(C(=O)[O-])=C(C[n+]3ccccc3)CS[C@H]12)c1csc(N)n1)C(=O)O` [CEFTAZIDIME]: the MIC in the experiment with Acinetobacter baumannii [1] turned out to be 8 µg/mL (≈ 14.6 µM); with Acinetobacter baumannii [4] it was 8 µg/mL (≈ 14.6 µM); in the experiment on Acinetobacter baumannii [5], 4 µg/mL (≈ 7.32 µM); in the experiment on Acinetobacter baumannii [7], 8 µg/mL (≈ 14.6 µM). Further, the Activity in experiment [2] was less than 0.01 U/mg; in experiment [3] it was 0.077 U/mg; in [6], 0.075 U/mg.
For the molecule `C[C@@H](O)[C@H]1C(=O)N2C(C(=O)O)=C(SCCNC=N)C[C@H]12` [IMIPENEM ANHYDROUS], the minimal inhibitory concentration (MIC) turned out to be 16 µg/mL (≈ 53.4 µM) against Acinetobacter baumannii [1]; 16 µg/mL (≈ 53.4 µM) in the experiment on Acinetobacter baumannii [8]; 32 µg/mL (≈ 107 µM) with Acinetobacter baumannii [10]; 6 µg/mL (≈ 20 µM) against Acinetobacter baumannii [4]; 0.5 µg/mL (≈ 1.67 µM) against Acinetobacter baumannii [5]; 2 µg/mL (≈ 6.68 µM) with Klebsiella pneumoniae. In addition, in the experiment on Acinetobacter baumannii [7], the minimal inhibitory concentration (MIC) came out at 64 µg/mL (≈ 214 µM). Further, the Activity is less than 0.01 U/mg in [2]; 0.388 U/mg in experiment [9]; 0.227 U/mg in experiment [3]; 0.27 U/mg in experiment [11]; 0.165 U/mg in experiment [6]; 0.365 U/mg in [12]. Also, the Activity in experiment [13] was determined as 0.303 U/mg.
On to `C[C@@H](O)[C@H]1C(=O)N2C(C(=O)O)=C(S[C@@H]3CN[C@H](C(=O)N(C)C)C3)[C@H](C)[C@H]12` [MEROPENEM], for which the minimum inhibitory concentration (MIC) against Acinetobacter baumannii [1] was determined as 4 µg/mL (≈ 10.4 µM); against Acinetobacter baumannii [8] it was 4 µg/mL (≈ 10.4 µM); in the experiment with Acinetobacter baumannii [10], 8 µg/mL (≈ 20.9 µM); against Acinetobacter baumannii [14] it was 12 µg/mL (≈ 31.3 µM); against Acinetobacter baumannii [4], 3 µg/mL (≈ 7.82 µM); against Acinetobacter baumannii [5] it was 0.5 µg/mL (≈ 1.3 µM). Also, the MIC in the experiment with Acinetobacter baumannii [7] was 8 µg/mL (≈ 20.9 µM).
